Source: ChEMBL document CHEMBL1201862, “PubChem BioAssay data set” (2004)
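Step 1: Grow cells in 96-well plates. Step 2: Expose to compound for 48 hours at 5 concentrations. Step 3: Interpolate endpoints linearly; if unreached, use highest concentration. GI50 is the concentration that inhibits growth by half.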 Active and inactive are the calls of the source. No stated cut-off is given here; in the data, active = GI50 up to about 1.1 µM and inactive = higher.

Columns and labels:
Experiment in all cases: inhibition of tumour cell growth, NCI panel, 48 h
786-0 = system: 786-0
A498 = system: A498
A549 = system: A549
ACHN = system: ACHN
CAKI-1 = system: CAKI-1
CCRF-CEM = system: CCRF-CEM
COLO 205 = system: COLO 205
DU-145 = system: DU-145
HCT-116 = system: HCT-116
HCT-15 = system: HCT-15
HL-60 = system: HL-60
HOP-62 = system: HOP-62
HOP-92 = system: HOP-92
HT-29 = system: HT-29
Hs-578T = system: Hs-578T
K562 = system: K562
KM12 = system: KM12
M14 = system: M14
MCF7 = system: MCF7
MDA-MB-231 = system: MDA-MB-231
MDA-MB-435 = system: MDA-MB-435
MDA-N = system: MDA-N
MOLT-4 = system: MOLT-4
NCI-H226 = system: NCI-H226
NCI-H23 = system: NCI-H23
NCI-H460 = system: NCI-H460
NCI/ADR-RES = system: NCI/ADR-RES
OVCAR-3 = system: OVCAR-3
OVCAR-4 = system: OVCAR-4
OVCAR-5 = system: OVCAR-5
OVCAR-8 = system: OVCAR-8
PC-3 = system: PC-3
RPMI-8226 = system: RPMI-8226
SF-268 = system: SF-268
SF-295 = system: SF-295
SF-539 = system: SF-539
SK-MEL-28 = system: SK-MEL-28
SK-MEL-2 = system: SK-MEL-2
SK-MEL-5 = system: SK-MEL-5
SK-OV-3 = system: SK-OV-3
SN12C = system: SN12C
SNB-19 = system: SNB-19
SNB-75 = system: SNB-75
SR = system: SR
SW-620 = system: SW-620
T47D = system: T47D
TK-10 = system: TK-10
U-251 = system: U-251
UACC-257 = system: UACC-257
UACC-62 = system: UACC-62
UO-31 = system: UO-31
EKVX = system: EKVX
HCC 2998 = system: HCC 2998
IGROV-1 = system: IGROV-1
LOX IMVI = system: LOX IMVI
Malme-3M = system: Malme-3M
RXF 393 = system: RXF 393
NCI-H522 = system: NCI-H522

Structure (SMILES): O=C1OCCC[C@H]2O[C@@H](COCc3ccccc3)C[C@@H]12
- GI50 (786-0): > 100 µM (inactive)
- GI50 (A498): > 100 µM (inactive)
- GI50 (A549): > 100 µM (inactive)
- GI50 (ACHN): > 100 µM (inactive)
- GI50 (CAKI-1): > 100 µM (inactive)
- GI50 (CCRF-CEM): > 100 µM (inactive)
- GI50 (COLO 205): > 100 µM (inactive)
- GI50 (DU-145): > 100 µM (inactive)
- GI50 (HCT-116): > 100 µM (inactive)
- GI50 (HCT-15): > 100 µM
- GI50 (HL-60): > 100 µM (inactive)
- GI50 (HOP-62): > 100 µM (inactive)
- GI50 (HOP-92): > 100 µM (inactive)
- GI50 (HT-29): > 100 µM (inactive)
- GI50 (Hs-578T): > 100 µM (inactive)
- GI50 (K562): > 100 µM (inactive)
- GI50 (KM12): > 100 µM (inactive)
- GI50 (M14): > 100 µM (inactive)
- GI50 (MCF7): > 100 µM (inactive)
- GI50 (MDA-MB-231): > 100 µM (inactive)
- GI50 (MDA-MB-435): > 100 µM (inactive)
- GI50 (MDA-N): > 100 µM (inactive)
- GI50 (MOLT-4): > 100 µM (inactive)
- GI50 (NCI-H226): > 100 µM (inactive)
- GI50 (NCI-H23): > 100 µM (inactive)
- GI50 (NCI-H460): > 100 µM (inactive)
- GI50 (NCI/ADR-RES): > 100 µM (inactive)
- GI50 (OVCAR-3): > 100 µM (inactive)
- GI50 (OVCAR-4): > 100 µM (inactive)
- GI50 (OVCAR-5): > 100 µM (inactive)
- GI50 (OVCAR-8): > 100 µM (inactive)
- GI50 (PC-3): > 100 µM (inactive)
- GI50 (RPMI-8226): > 100 µM (inactive)
- GI50 (SF-268): > 100 µM (inactive)
- GI50 (SF-295): > 100 µM (inactive)
- GI50 (SF-539): > 100 µM (inactive)
- GI50 (SK-MEL-28): > 100 µM (inactive)
- GI50 (SK-MEL-2): > 100 µM (inactive)
- GI50 (SK-MEL-5): > 100 µM (inactive)
- GI50 (SK-OV-3): > 100 µM (inactive)
- GI50 (SN12C): > 100 µM (inactive)
- GI50 (SNB-19): > 100 µM (inactive)
- GI50 (SNB-75): > 100 µM (inactive)
- GI50 (SR): > 100 µM (inactive)
- GI50 (SW-620): > 100 µM (inactive)
- GI50 (T47D): > 100 µM (inactive)
- GI50 (TK-10): > 100 µM (inactive)
- GI50 (U-251): > 100 µM (inactive)
- GI50 (UACC-257): > 100 µM (inactive)
- GI50 (UACC-62): > 100 µM (inactive)
- GI50 (UO-31): > 100 µM (inactive)

Structure (SMILES): CC(C)(Oc1ccc(C(=O)c2ccc(Cl)cc2)cc1Cl)C(=O)N1CCN(CCO)CC1
- GI50 (786-0): > 10 µM (inactive)
- GI50 (A549): > 10 µM (inactive)
- GI50 (CAKI-1): > 10 µM (inactive)
- GI50 (CCRF-CEM): > 10 µM (inactive)
- GI50 (COLO 205): > 10 µM (inactive)
- GI50 (DU-145): 7.05 µM (inactive)
- GI50 (EKVX): > 10 µM (inactive)
- GI50 (HCC 2998): > 10 µM (inactive)
- GI50 (HCT-15): > 10 µM
- GI50 (HL-60): 3.53 µM (inactive)
- GI50 (HOP-62): > 10 µM (inactive)
- GI50 (HT-29): > 10 µM (inactive)
- GI50 (IGROV-1): > 10 µM (inactive)
- GI50 (K562): 2.85 µM (inactive)
- GI50 (KM12): > 10 µM (inactive)
- GI50 (LOX IMVI): > 10 µM (inactive)
- GI50 (M14): > 10 µM (inactive)
- GI50 (MCF7): 5.12 µM (inactive)
- GI50 (MDA-MB-231): > 10 µM (inactive)
- GI50 (MDA-N): > 10 µM (inactive)
- GI50 (MOLT-4): 4.4 µM (inactive)
- GI50 (Malme-3M): 9.42 µM (inactive)
- GI50 (NCI-H23): 4.24 µM (inactive)
- GI50 (OVCAR-8): > 10 µM (inactive)
- GI50 (PC-3): 3.93 µM (inactive)
- GI50 (RPMI-8226): 4.51 µM (inactive)
- GI50 (RXF 393): 6.27 µM (inactive)
- GI50 (SF-295): 8.59 µM (inactive)
- GI50 (SK-MEL-28): > 10 µM (inactive)
- GI50 (SK-MEL-5): 3.91 µM (inactive)
- GI50 (SK-OV-3): > 10 µM (inactive)
- GI50 (SN12C): > 10 µM (inactive)
- GI50 (SNB-75): > 10 µM (inactive)
- GI50 (SR): 2.96 µM (inactive)
- GI50 (SW-620): > 10 µM (inactive)
- GI50 (T47D): 5.85 µM (inactive)
- GI50 (TK-10): > 10 µM (inactive)
- GI50 (UACC-257): 3.39 µM (inactive)
- GI50 (UACC-62): > 10 µM (inactive)

Structure (SMILES): C/C=C/C(=O)N1C(=O)OC[C@@H]1c1ccccc1
- GI50 (786-0): 18.2 µM (inactive)
- GI50 (A498): 26.1 µM (inactive)
- GI50 (A549): 19.1 µM (inactive)
- GI50 (ACHN): 19.1 µM (inactive)
- GI50 (CAKI-1): 18.3 µM (inactive)
- GI50 (CCRF-CEM): 23 µM (inactive)
- GI50 (COLO 205): 21.8 µM (inactive)
- GI50 (DU-145): 20.5 µM (inactive)
- GI50 (EKVX): 17.6 µM (inactive)
- GI50 (HCC 2998): 23.1 µM (inactive)
- GI50 (HCT-116): 19.9 µM (inactive)
- GI50 (HCT-15): 23.3 µM
- GI50 (HL-60): 21.9 µM (inactive)
- GI50 (HOP-62): 20.4 µM (inactive)
- GI50 (HOP-92): 20.6 µM (inactive)
- GI50 (HT-29): 19.2 µM (inactive)
- GI50 (Hs-578T): 24.8 µM (inactive)
- GI50 (IGROV-1): 19.4 µM (inactive)
- GI50 (K562): 22.8 µM (inactive)
- GI50 (KM12): 14.7 µM (inactive)
- GI50 (LOX IMVI): 18.2 µM (inactive)
- GI50 (M14): 19.4 µM (inactive)
- GI50 (MCF7): 14.7 µM (inactive)
- GI50 (MDA-MB-231): 22 µM (inactive)
- GI50 (MDA-MB-435): 27.4 µM (inactive)
- GI50 (MDA-N): 20.7 µM (inactive)
- GI50 (MOLT-4): 25.2 µM (inactive)
- GI50 (Malme-3M): 20.4 µM (inactive)
- GI50 (NCI-H226): 22.2 µM (inactive)
- GI50 (NCI-H23): 17.2 µM (inactive)
- GI50 (NCI-H522): 20.4 µM (inactive)
- GI50 (NCI/ADR-RES): 22.4 µM (inactive)
- GI50 (OVCAR-3): 18 µM (inactive)
- GI50 (OVCAR-4): 23 µM (inactive)
- GI50 (OVCAR-5): 17.4 µM (inactive)
- GI50 (OVCAR-8): 16.7 µM (inactive)
- GI50 (PC-3): 18.3 µM (inactive)
- GI50 (RPMI-8226): 26.1 µM (inactive)
- GI50 (RXF 393): 18.5 µM (inactive)
- GI50 (SF-268): 20.5 µM (inactive)
- GI50 (SF-295): 26.7 µM (inactive)
- GI50 (SF-539): 21.9 µM (inactive)
- GI50 (SK-MEL-28): 21.5 µM (inactive)
- GI50 (SK-MEL-2): 19.1 µM (inactive)
- GI50 (SK-MEL-5): 18.7 µM (inactive)
- GI50 (SK-OV-3): 18.2 µM (inactive)
- GI50 (SN12C): 20.5 µM (inactive)
- GI50 (SNB-19): 20.4 µM (inactive)
- GI50 (SNB-75): 12.8 µM (inactive)
- GI50 (SW-620): 24.6 µM (inactive)
- GI50 (T47D): 16.3 µM (inactive)
- GI50 (TK-10): 17.5 µM (inactive)
- GI50 (U-251): 23.1 µM (inactive)
- GI50 (UACC-257): 20.4 µM (inactive)
- GI50 (UO-31): 19.5 µM (inactive)

Structure (SMILES): COc1ccc(/C=C\c2cc(OC)c(OC)c(OC)c2)cc1OP(=O)(O)O
- GI50 (NCI/ADR-RES): 0.000137 µM (active)
